Laboratory results as given in article PMC6337475, “Optimization of Sequence, Display, and Mode of Operation of IgG-Binding Peptide Ligands to Develop Robust, High-Capacity Affinity Adsorbents That Afford High IgG Product Quality” (International Journal of Molecular Sciences, 2019).
Non-standard residues stand in square brackets, D forms with d. No end group written: not given here. Cit = NC(=O)NCCC[C@H](N)C(=O)O

How the values were obtained:
[1] = tested on: human polyclonal IgG; test: Batch adsorption isotherm (Langmuir fit); format: binding; details: peptide-TREN-WB resin, 0.1-12 mg/mL IgG in PBS pH 7.4, 2 h, room temperature, UV 280 nm
Protocol: The IgG-binding affinity of the ligand variants was initially measured via batch adsorption studies. Briefly, aliquots of peptide-TREN-WB resin were incubated with solutions of IgG in PBS in a range of concentration between 0.1 and 12 mg/mL; as the binding equilibrium was reached, the amount of IgG adsorbed on each resin aliquot was calculated based on the equilibrium concentration of IgG in solution, and the corresponding values were fitted to the Langmuir model: q=QmaxC/KD+C where in KD is the dissociation constant and Qmax the equilibrium binding capacity.
The adsorption of human polyclonal IgG by the HWRGWV-WB resins was measured at room temperature in a set of batch adsorption experiments. The resin was equilibrated with PBS, pH 7.4, and transferred into fritted tubes (50 µL of resin slurry per tube). Lyophilized IgG was dissolved in PBS, pH 7.4, at different concentrations ranging from 0.1 to 12 mg/mL. A volume of 1 mL of IgG solution was incubated with each of the resin aliquots for two hours, at room temperature, and under mild agitation. The supernatants were collected and quantified by UV-absorbance at 280 nm to determine the amount of IgG adsorbed by the resin and the corresponding equilibrium concentration of unbound IgG in solution, and the resulting data were fitted to a Langmuir isotherm.

[2] = tested on: CHO host cell proteins (HCPs); test: Host cell protein clearance (HCP ELISA) in IgG1 purification from CHO supernatant; design: species or system Chinese Hamster Ovary (CHO); details: for HCP LRV: elution 0.1 M Na-acetate pH 4.5, TREN-WB adsorbent
Protocol: (§1) Further, the chromatographic fractions were analyzed using a HCP ELISA kit and a Quant-IT Picogreen dsDNA assay kit to determine the levels of host cell proteins (HCPs) and DNA, respectively.
(§2) In this work, we have investigated the effect of pH of the elution buffer on the performance of HWRGWV-TREN-WB resin with a therapeutic monoclonal IgG1. Specifically, 0.1 M acetate buffer was used as a milder elution buffer (pH 4–5), while 0.1 M glycine HCl buffer was used for low pH elution (pH 2.5). The performance of the different buffers was evaluated in terms of HCP LRV in the eluted fraction, whose values are reported in Figure 5. The HCP clearance decreases at lower elution pH, which is however needed to ensure sufficient IgG yield. At pH 5, where a HCP LRV of 1.18 is obtained, only 75% of the bound IgG is eluted. […] Therefore, acetate buffer pH 4.5 was selected as elution buffer, as it offers the best combination of yield and purity.
The majority of CHO HCPs are acidic in nature and have an overall negative charge at the physiological conditions (PBS pH 7.4). Their non-specific binding to the positively charged ligand (the net charge of HWRGWV at pH 7 is +1.1) is likely of electrostatic nature. In order to lower the non-specific capture of HCPs, pre-elution wash conditions were optimized by exploring different compositions and pH values of the washing buffer. Specifically, the following conditions were utilized, 0.2 M sodium phosphate pH 6, 0.2 M sodium phosphate pH 7, PBS pH 7.4, 1 M NaCl in PBS at pH 7.4, and 0.1 M Tris HCl pH 9.
The host cell protein contents of the chromatographic fractions were determined using HCP ELISA kits from Cygnus Technologies (Southport, NC, USA). The high sensitivity protocol described by the manufacturer was used in the analysis. Briefly, the anti-CHO-coated microtiter wells were filled with 100 μL of standards and samples, and incubated on a rotator at 200 rpm for 1 h at room temperature. The wells were then washed three times with 300 μL washing buffer, and 100 μL of HRP-labeled anti-CHO antibody was added to each of the wells. After rinsing the wells, 100 μL of 3,3′,5,5′ tetramethyl benzidine (TMB) substrate solution was added to each well for 30 min at room temperature. The reaction was terminated by adding 100 μL of 0.5 M sulphuric acid. The amount of hydrolyzed substrate was measured by μQuant Microplate reader (BioTek Inc., Winooski, VT, USA) at 450 nm. A 4-parameter logistic fit was used to calculate the HCP (ng/mL) content in the chromatographic fractions. The HCP values determined in terms of ng/mL were converted into ng/mg of MAb to account for the dilution of fractions. The log reduction value (LRV) was determined as the log10 of the ratio of HCP in the load to the HCP in the elution fractions.

[3] = tested on: DNA; test: DNA clearance (Quant-IT PicoGreen) in IgG1 purification from CHO supernatant; design: species or system Chinese Hamster Ovary (CHO); details: washing buffer PBS, pH 7.4; elution 0.1 M Na-acetate pH 4.5; TREN-WB adsorbent
Protocol: as §1
The chromatographic fractions were first diafiltered against 10 mM Tris–HCl pH 7.5, using Amicon® centrifugal filters (3000 MWCO Millipore, Bedford, MA, USA). The DNA content in the fractions was determined by pico green assay using Quant-IT Picogreen dsDNA assay kit from Thermo Fisher Scientific (Philadelphia, PA, USA). Quantification was done as per the manufacturer’s protocol.

[4] = tested on: polyclonal human IgG (monomer and aggregates); test: Aggregate removal from heat-treated polyclonal IgG, SEC; details: 1 mg/mL IgG incubated 60 °C 10 min; PBS wash; elution pH 4.5; SEC (TSKgel G3000SW)
Protocol: The ability of HWRGWVC-TREN-WB to remove aggregates was further tested by using a polyclonal IgG solution. The formation of aggregates was induced by incubating a 1 mg/mL IgG solution at 60 °C for 10 min. The IgG solution containing aggregates was loaded onto the HWRGWVC-TREN-WB resin, followed by washing with PBS and elution at pH 4.5.
Further, a feed sample containing monomeric and aggregated polyclonal IgG was produced by incubating a 1 mg/mL solution of human IgG at 60 °C for 10 min. The solution was loaded onto the HWRGWVC-TREN-WB resin, followed by washing with PBS and elution at pH 4.5. The collected fractions were analyzed by size exclusion chromatography (SEC) using a TSKgel G3000SW column to determine the ratio of monomeric vs. aggregated IgG in both flow-through and elution fractions.

[5] = tested on: Fc region of IgG; details: cited from earlier work
From the text: Several chromatographic and non-chromatographic techniques have been proposed for the purification of Mabs, fc fusion proteins and bispecifics including efforts towards identifying alternatives to Protein A-based chromatography. While being regarded as the standard for antibody purification owing to their high affinity and selectivity, these ligands present limitations, including high cost and the potential release of immunogenic fragments. An additional issue with Protein A concerns the presence of antibody aggregates in eluted fraction and their poor selectivity ...

[6] = tested on: IgG; details: preliminary studies; cited from earlier work
From the text: In this work the peptide and peptide variants have been conjugated to Workbeads base resin at varying ligand densities ...

[7] = tested on: therapeutic monoclonal IgG1; test: Purification of monoclonal IgG1 from CHO cell culture supernatant: yield, loss and purity; details: SDS-PAGE
Protocol: To evaluate the effect of the spacer arm on the purity of the eluted product, the HWRGWV-WB adsorbents constructed with different spacer arms were utilized to purify a monoclonal IgG1 from a CHO cell culture supernatant. […] The collected fractions were analyzed by size exclusion chromatography to measure product yield (Table 2), and by SDS-PAGE to determine the overall product purity by densitometric analysis (Figure 4).
as §1, §2

Substance	Qmax (equilibrium binding capacity) [1]	HCP LRV ([2]; washing buffer PBS, pH 7.4)	DNA LRV [3]	HCP LRV ([2]; washing buffer 0.1 M Tris HCl, pH 9)	HCP removal during washing ([2]; washing buffer 0.2 M sodium phosphate at either pH 6 or 7)	HCP LRV ([2]; washing buffer 1 M NaCl in PBS, pH 7.4)	selective capture of monomeric IgG vs aggregates [4]	binding region on IgG [5]	IgG binding capacity on agarose WorkBeads ACT [6]	loss of IgG in washing buffer ([7]; wash 0.1 M Tris HCl, pH 9)	loss of IgG in washing buffer ([7]; wash 1 M NaCl in PBS pH 7.4)
Ac-HWRGWV [N-terminally acetylated variant of HWRGWV, tested as TREN-WB resin]	72 mg·IgG/mL Adsorbent	1.38	~4								
HWRGWV [tested as TREN-WB resin, coupled as HWRGWVC]	85 mg·IgG/mL Adsorbent	1.04	~4	1.39	did not afford any HCP removal during washing	1.22	bind only monomeric IgG	binds the Fc region of IgG	higher IgG binding capacity as compared to polymethcarylate base resin		
HWRGWVC [peptide HWRGWV with C-terminal cysteine, conjugated through its thiol group to iodoacetyl-WB resin]										not observed	minor loss of IgG in the washing buffer
HW[Cit]GWV	49 mg·IgG/mL Adsorbent	1.58	~4								
